Key:
Format in all cases: in vivo
[1] = system: rice (Oryza saliva); assay: Test C flooded paddy test; conditions: for Rice plant response rating: Flooded Paddy, scale 0 to 100, 0 no effect, 100 complete control; for Plant response rating, Rice: flooded paddy test, scale 0 to 100 (0 no effect, 100 complete control)
Summary of the method: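 Flooded paddy, 2-leaf stage at treatment. Readout: visual % control vs untreated, 0–100, at 12–14 d in greenhouse.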

[2] = system: Sunflower; assay: Test C preemergence; conditions: visual evaluation after 12 to 14 days
[3] = system: bermudagrass (Cynodon dactylon); assay: Test C postemergence
Source text: (§1) Seeds of plant species selected from bermudagrass (Cynodon dactylon), Surinam grass (Brachiaria decumbens), cocklebur (Xanthium strumarium), corn (Zea mays), crabgrass (Digitaria sanguinalis), woolly cupgrass (Eriochloa villosa), giant foxtail (Setaria faberii), goosegrass (Eleusine indica), johnsongrass (Sorghum halepense), kochia (Kochia scoparia), lambsquarters (Chenopodium album), morningglory (Ipomoea hederacea), yellow nutsedge (Cyperus esculentus), pigweed (Amaranthus retroflexus), common ragweed (Ambrosia elatior), soybean (Glycine max) and velvetleaf (Abutilon theophrasti) were planted and treated preemergence with test chemicals formulated in a non-phytotoxic solvent mixture which included a surfactant.
(§2) At the same time, plants selected from these crop and weed species and also winter barley (Hordeum vulgare), blackgrass (Alopecurus myosuroides), canary grass (Phalaris minor), chickweed (Stellaria media), downy brome (Bromus tectorum), green foxtail (Setaria viridis), Italian ryegrass (Lolium multiflorum), wheat (Triticum aestivum), wild oat (Avena fatua) and windgrass (Apera spica-venti) were treated with postemergence applications of some of the test chemicals formulated in the same manner. Plants ranged in height from 2 to 18 cm (1- to 4-leaf stage) for postemergence treatments. Plant species in the flooded paddy test consisted of rice (Oryza saliva), smallflower flatsedge (Cyperus difformis), duck salad (Heteranthera limosa) and barnyardgrass (Echinochloa crus-galli) grown to the 2-leaf stage for testing. Treated plants and controls were maintained in a greenhouse for 12 to 14 days, after which time all species were compared to controls and visually evaluated. Plant response ratings, summarized in Table C, are based on a scale of 0 to 100 where 0 is no effect and 100 is complete control. A dash (-) response means no test result.

[4] = system: corn (Zea mays); assay: Test C postemergence
Source text: as §1, §2

[5] = system: Surinam grass (Brachiaria decumbens); assay: Test C postemergence
Source text: as §1, §2

[6] = system: morningglory (Ipomoea hederacea); assay: Test C postemergence
Source text: as §1, §2

[7] = system: giant foxtail (Setaria faberii); assay: Test C postemergence
Source text: as §1, §2

[8] = system: goosegrass (Eleusine indica); assay: Test C postemergence
Source text: as §1, §2

[9] = system: velvetleaf (Abutilon theophrasti); assay: Test C postemergence
Source text: as §1, §2

[10] = system: chickweed (Stellaria media); assay: Test C postemergence
Source text: as §1, §2

[11] = system: lambsquarters (Chenopodium album); assay: Test C postemergence
Source text: as §1, §2

[12] = system: yellow nutsedge (Cyperus esculentus); assay: Test C postemergence
Source text: as §1, §2

[13] = Rate 125 g/ha, scale 0 to 100, 0 no effect, 100 complete control
[14] = Rate 250 g/ha, scale 0 to 100 (0 no effect, 100 complete control)
[15] = Rate 500 g/ha, scale 0 to 100 (0 no effect, 100 complete control)

CCOC(=O)c1cccc(N2CCC(n3ccc(C(C)(C)C)n3)C2=O)c1 (stereo not drawn) [Compound 72]
Rice plant response rating ([1]; Rate 250 g/ha): 40
Rice plant response rating ([1]; Rate 500 g/ha): 50
Plant response rating, Rice ([1]; Rate 62 g/ha): 0
Plant response rating, Rice ([1]; Rate 125 g/ha): 20
Plant response rating (0 to 100), Sunflower ([2]; Rate 500 g/ha): 60

CC1(c2ccn(C3OCN(c4cccc(C(F)(F)F)c4)C3=O)n2)CC1 (stereo not drawn) [Compound 62]
Rice plant response rating ([1]; Rate 250 g/ha): 50
Rice plant response rating ([1]; Rate 500 g/ha): 50
Plant response rating, Rice ([1]; Rate 62 g/ha): 0
Plant response rating, Rice ([1]; Rate 125 g/ha): 0
Plant response rating (0 to 100), Sunflower ([2]; Rate 250 g/ha): 0
Plant response rating (0 to 100), Sunflower ([2]; Rate 500 g/ha): 0

O=C1C(n2ccc(C3CCC3)n2)SCN1c1cccc(OC(F)F)c1 (stereo not drawn) [Compound 45]
Rice plant response rating ([1]; Rate 250 g/ha): 70
Rice plant response rating ([1]; Rate 500 g/ha): 100
Plant response rating, Rice ([1]; Rate 62 g/ha): 0
Plant response rating, Rice ([1]; Rate 125 g/ha): 50
Plant response rating (0 to 100), Sunflower ([2]; Rate 250 g/ha): 20

CC(C)Oc1cccc(N2CCC(n3ccc(C(C)C)n3)C2=O)c1 (stereo not drawn) [Compound 82]
Rice plant response rating ([1]; Rate 250 g/ha): 60
Rice plant response rating ([1]; Rate 500 g/ha): 80
Plant response rating, Rice ([1]; Rate 62 g/ha): 0
Plant response rating, Rice ([1]; Rate 125 g/ha): 30
Plant response rating (0 to 100), Sunflower ([2]; Rate 500 g/ha): 80

CCC(C)c1ccn(C2CCN(c3cccc(OC(C)C)c3)C2=O)n1 (stereo not drawn) [Compound 83]
Rice plant response rating ([1]; Rate 250 g/ha): 70
Rice plant response rating ([1]; Rate 500 g/ha): 80
Plant response rating, Rice ([1]; Rate 62 g/ha): 20
Plant response rating, Rice ([1]; Rate 125 g/ha): 20
Plant response rating (0 to 100), Sunflower ([2]; Rate 500 g/ha): 70

Cc1ccc(N2CCC(n3ccc(C(C)(C)C)n3)C2=O)cc1OC(F)F (stereo not drawn) [Compound 79]
Rice plant response rating ([1]; Rate 250 g/ha): 20
Rice plant response rating ([1]; Rate 500 g/ha): 50
Plant response rating, Rice ([1]; Rate 62 g/ha): 0
Plant response rating, Rice ([1]; Rate 125 g/ha): 20
Plant response rating (0 to 100), Sunflower ([2]; Rate 500 g/ha): 60

O=C1C(n2ccc(C3CCC3)n2)OCN1c1cccc(C(F)(F)F)c1 (stereo not drawn) [Compound 39]
Rice plant response rating ([1]; Rate 250 g/ha): 0
Rice plant response rating ([1]; Rate 500 g/ha): 70
Plant response rating, Rice ([1]; Rate 62 g/ha): 0
Plant response rating, Rice ([1]; Rate 125 g/ha): 0
Plant response rating (0 to 100), Sunflower ([2]; Rate 250 g/ha): 0

CC1(c2ccn(C3OCN(c4cccc(OC(F)(F)F)c4)C3=O)n2)CC1 (stereo not drawn) [Compound 69]
Rice plant response rating ([1]; Rate 250 g/ha): 40
Rice plant response rating ([1]; Rate 500 g/ha): 80
Plant response rating, Rice ([1]; Rate 62 g/ha): 0
Plant response rating, Rice ([1]; Rate 125 g/ha): 20

CCC(CC)c1ccn(C2OCN(c3cccc(OC(F)(F)F)c3)C2=O)n1 (stereo not drawn) [Compound 68]
Rice plant response rating ([1]; Rate 250 g/ha): 30
Rice plant response rating ([1]; Rate 500 g/ha): 100
Plant response rating, Rice ([1]; Rate 62 g/ha): 20
Plant response rating, Rice ([1]; Rate 125 g/ha): 30
Plant response rating, Bermudagrass ([3]; Rate 62 g/ha, scale 0 to 100): 0
Plant response rating, Bermudagrass [3, 13]: 0
Plant response rating, Bermudagrass [3, 14]: 20
Plant response rating, Bermudagrass [3, 15]: 40
Plant response rating, Corn ([4]; Rate 62 g/ha, scale 0 to 100): 0
Plant response rating, Corn [4, 13]: 0
Plant response rating, Corn [4, 14]: 0
Plant response rating, Corn [4, 15]: 0
Plant response rating, Surinam grass ([5]; Rate 62 g/ha, scale 0 to 100): 0
Plant response rating, Surinam grass [5, 13]: 0
Plant response rating, Surinam grass [5, 14]: 0
Plant response rating, Surinam grass [5, 15]: 0
Plant response rating, Morningglory ([6]; Rate 62 g/ha, scale 0 to 100): 50
Plant response rating, Morningglory [6, 13]: 60
Plant response rating, Morningglory [6, 14]: 60
Plant response rating, Morningglory [6, 15]: 70
Plant response rating, Foxtail, Giant ([7]; Rate 62 g/ha, scale 0 to 100): 0
Plant response rating, Foxtail, Giant [7, 13]: 0
Plant response rating, Foxtail, Giant [7, 14]: 0
Plant response rating, Foxtail, Giant [7, 15]: 0
Plant response rating, Goosegrass ([8]; Rate 62 g/ha, scale 0 to 100): 0
Plant response rating, Goosegrass [8, 13]: 0
Plant response rating, Goosegrass [8, 14]: 0
Plant response rating, Goosegrass [8, 15]: 0
Plant response rating, Velvetleaf ([9]; Rate 62 g/ha, scale 0 to 100): 0
Plant response rating, Velvetleaf [9, 13]: 0
Plant response rating, Velvetleaf [9, 14]: 0
Plant response rating, Velvetleaf [9, 15]: 30
Plant response rating, Chickweed ([10]; Rate 62 g/ha, scale 0 to 100): 30
Plant response rating, Chickweed [10, 13]: 40
Plant response rating, Chickweed [10, 14]: 70
Plant response rating, Chickweed [10, 15]: 80
Plant response rating, Lambsquarters ([11]; Rate 62 g/ha, scale 0 to 100): 60
Plant response rating, Lambsquarters [11, 13]: 80
Plant response rating, Lambsquarters [11, 14]: 80
Plant response rating, Lambsquarters [11, 15]: 100
Plant response rating, Nutsedge ([12]; Rate 62 g/ha, scale 0 to 100): 0
Plant response rating, Nutsedge [12, 13]: 0
Plant response rating, Nutsedge [12, 14]: 0
Plant response rating, Nutsedge [12, 15]: 0
